Measurements as given in patent publication US12180146B2, “Antihypertensive polyol compound and derivative thereof” (TAO PHARMACEUTICAL (SUZHOU) CO., LTD, priority 2020, dated 2024).

How the values were obtained:
[1] = system: spontaneously hypertensive rats (SHR); experiment: Antihypertensive activity test: blood pressure and heart rate of spontaneously hypertensive rats (SHR); type: in vivo, rat; conditions: 200 mg/kg; for SHR blood pressure (SBP), time after administration 1 h / SHR blood pressure (SBP), time after administration 2 h / SHR blood pressure (SBP), time after administration 3 h / SHR blood pressure (SBP), time after administration 4 h / SHR blood pressure (SBP), time after administration 5 h / SHR blood pressure (SBP), time after administration 6 h: n = 8
Outline: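 Spontaneously hypertensive rats received compound at 200 mg/kg. SBP and heart rate were measured before and after dosing. A drop in SBP of ≥20 mmHg from baseline counted as effective, and heart-rate changes were tested by paired t-test (P<0.05).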

[2] = system: monocrotaline-induced pulmonary hypertension model rats (MCT-PAH); experiment: Monocrotaline-induced pulmonary hypertension model rats, oral (gavage) treatment for 21 days; type: in vivo, SD rats
Text: Monocrotaline (MCT) was subcutaneously injected to establish an animal model of pulmonary hypertension in SD rats. At the same time, compound 1 was given by gavage for treatment. The pulmonary artery hemodynamics and right heart hypertrophy index RVHI of the rates were detected to determine whether the oral administration of compound 1 has effects of improving Monocrotaline induces pulmonary hypertension.
(§1) SD rats (purchased from Shanghai Xipuer-Bikai Experimental Animal Co., Ltd.), male, weighing 180-200 g, were bred in an artificially controlled animal room with each 12 hours of light and darkness at a temperature of 20-25° C. and relative humidity of 50-60%, and allowed ad libitum to food and water. The rats were randomly divided into groups according to the experimental requirements, and kept separately in cages, with 3 to 4 rats per cage. All relevant operations of animal experiments are in compliance with the provisions of “Guidelines for the Management and Use of Laboratory Animals” of China.
During the experiment, SD rats were randomly divided into 4 groups: blank control group, pulmonary hypertension model group, Selexipag (1 mg/kg) treatment group and compound 1 (100 mg/kg) group with 6 rats in each group, and the concentration in brackets represents the administration concentration of the compound, in which Selexipag is a new oral long-acting prostacyclin receptor agonist discovered and synthesized by Japan New Drug Co., Ltd. On the first day of the experiment, normal saline was injected subcutaneously into the back of neck of rats in the blank control group, and monocrotaline (Chengdu Purifa Biotechnology Co., Ltd.) solution was injected in the rats in other groups at a dosage of 60 mg/kg. Both the positive drug, Selexipag and Compound 1 were administered by gavage. Selexipag and […] were dissolved in 0.5% CMC-Na solution. The rats were continuously administered for 21 days with a volume of […]. The rats in the control and model groups were given the corresponding volume of CMC-Na solution by gavage. Specific groupings can be found in Table 7.
After the administration, the pulmonary vascular hemodynamics and RVHI was determined according to the same experiment method as that in Example 1.

[3] = system: hypoxic pulmonary hypertension model rats; experiment: Hypoxic pulmonary hypertension model rats, oral (gavage) treatment for 28 days; type: in vivo, SD rats; conditions: hypoxic PAH rats; for 2 × MT/ED / RVHI / RVSP / mPAP: po
Method: An animal model of pulmonary hypertension in SD rats was established in a hypoxic and low-pressure environment, and compound 1 was administered by gavage at the same time for treatment. The rat pulmonary artery hemodynamics and right heart hypertrophy index RVHI were measured to determine whether compound 1 has effects of improving hypoxic pulmonary hypertension.
as §1
The hypoxic PAH model was established by placing SD male rats in a fully-automatically regulated low-pressure hypoxic chamber (atmospheric pressure of about 50 kPa, oxygen concentration of 10%) for 8 hours a day for 28 days. The rats in the blank control group were kept in a normoxic environment.
The experimental rats of hypoxic PAH model were divided into 8 groups, namely blank control group, model group, Sidenafil (25 mg/kg) group, compound 1 (10 mg/kg) group, compound 1 (25 mg/kg) group, compound 1 (50 mg/kg) group, compound 1 (100 mg/kg) group, and compound 1 (200 mg/kg) group. The concentration in the parentheses of the group name represents the administration concentration of the compound or drug. In hypoxia-induced PAH experiments, Sidenafil is often used as a positive drug, which can reduce the pulmonary artery pressure in rats and reduce the right ventricular hypertrophy and vascular remodeling. In this experiment, 25 mg/kg of Sidenafil was used as the positive drug. Both the positive drugs Sidenafil and Compound 1 were dissolved in physiological saline and formulated into solutions of different concentrations according to different administration concentrations. The rats were continuously administered for 28 days with an administration volume of 5 ml/kg. Rats in the control and model groups were given the corresponding volume of physiological saline solution via gavage. The specific grouping can be found in Table 5.
After the administration was completed, the POWERLAB biological information acquisition and treatment system was started, and the right cardiac catheter filled with 0.2% heparin sodium (Beijing Solo Technology Co. Ltd.) in normal saline was connected to the pressure transducer and then zero-calibrationed for use. After 20% urethane (Shanghai Yuanye Biotechnology Co., Ltd.) solution was injected into the abdominal cavity of the rats for anesthesia, the right neck hair was shaved and the right jugular vein was isolated and exposed. […] After the typical right ventricular waveform appeared and stabilized for a while, the waveform was recorded, and then the pressure value was read by Powerlab biological information acquisition and processing system (ADInstruments).
After the pressure was measured, the catheter was taken out, and the rat was dissected immediately to take out the heart and lung tissues. The right ventricle (RV) and the left ventricle and interventricular septum (LV+S) were separated and weighed, and the right heart hypertrophy index RVHI=RV/(LV+S) was calculated. The lung lobe tissue from the right lower part of the lung was separated, soaked in 4% paraformaldehyde (Sigma) for about 1 week to prepare a paraffin section with a thickness of 3 μm, and then conducted to hematoxylin-eosin staining (Wuhan Guge Biotechnology Co., Ltd.). […]

[4] = system: monocrotaline-induced pulmonary hypertension model rats (MCT-PAH); experiment: Monocrotaline-induced pulmonary hypertension model rats, aerosol inhalation treatment; type: in vivo, SD rats; conditions: 30 mg/kg, inh, 28 days
Method: A pulmonary hypertension animal model of SD rats was established by subcutaneous injection of monocrotaline (MCT). The compound 1 was administered by aerosol inhalation for treatment. The pulmonary artery hemodynamics and right heart hypertrophy index RVHI of rats were tested to determine whether compound 1 administered by aerosol inhalation has effects of improving monocrotaline-induced pulmonary hypertension.
as §1
In the second experiment, the rats were divided into 5 groups, namely the control group, model group, positive control Tyvaso (1.62 μg/kg) group, compound 1 (10 mg/kg) group and compound 1 (30 mg/kg) group. On the first day of the experiment, normal saline was injected subcutaneously into the back of the neck of the rats in the blank control group, and monocrotaline (Chengdu Purifa Biotechnology Co., Ltd.) solution was injected in the other groups at a dosage of 60 mg/kg. Compound 1 and Tyvaso were administered by aerosol inhalation, that is, the compound was firstly dissolved in physiological saline, and then the solution was prepared into an aerosol with a nebulizer to be inhaled into the mouth and nose of rats. The rats in the control group and the model group only inhaled an aerosol made of physiological saline. The rats were continuously administered for 28 days, and the concentration in the parentheses of the group name represents the administered concentration of the compound. Specific groupings can be found in Table 9. After the administration, the pulmonary vascular hemodynamics and RVHI were determined in the same way as the experiment method in Example 1.

Row | Compound | SBP Difference before and after administration, 1 h [1] | SHR blood pressure (SBP), time after administration 1 h [1] | SBP Difference before and after administration, 2 h [1] | SHR blood pressure (SBP), time after administration 2 h [1] | SBP Difference before and after administration, 3 h [1] | SHR blood pressure (SBP), time after administration 3 h [1] | SBP Difference before and after administration, 4 h [1] | SHR blood pressure (SBP), time after administration 4 h [1] | SBP Difference before and after administration, 5 h [1] | SHR blood pressure (SBP), time after administration 5 h [1] | SBP Difference before and after administration, 6 h [1] | SHR blood pressure (SBP), time after administration 6 h [1] | 2 × MT/ED ([2]; 100 mg/kg) | RVHI ([2]; 100 mg/kg) | RVSP ([2]; 100 mg/kg) | mPAP ([2]; 100 mg/kg) | 2 × MT/ED ([3]; 200 mg/kg) | RVHI ([3]; 200 mg/kg) | RVSP ([3]; 200 mg/kg) | mPAP ([3]; 200 mg/kg) | also measured
1 | OCC(O)c1cccc(F)c1 (stereo not shown) [Compound 7] | 16 mmHg | 177 ± 9.56 mmHg | 21 mmHg | 172 ± 7.36 mmHg | 22 mmHg | 171 ± 4.07 mmHg | 20 mmHg | 173 ± 6.18 mmHg | 18 mmHg | 175 ± 5.63 mmHg | 13 mmHg | 180 ± 7.61 mmHg | 0.27 ± 0.045 | 0.33 ± 0.058 | 42.31 ± 2.78 mmHg | 15.67 ± 2.70 mmHg | 0.291 ± 0.023 | 0.261 ± 0.037 | 62.78 ± 3.41 mmHg | 16.64 ± 2.08 mmHg | 2 × MT/ED [4]: 0.375 ± 0.024; RVHI [4]: 0.267 ± 0.013; RVSP [4]: 44.61 ± 2.96 mmHg; mPAP [4]: 12.45 ± 2.41 mmHg
2 | CCCc1nn(C)c2c(=O)[nH]c(-c3cc(S(=O)(=O)N4CCN(C)CC4)ccc3OCC)nc12 [Sildenafil, reference compound] |  |  |  |  |  |  |  |  |  |  |  |  |  |  |  |  |  |  |  |  | value of RV/(LV+S), remodeling of the right ventricle ([3]; 25 mg/kg, gavage): effectively reduce; 2 × MT/ED ([3]; 25 mg/kg): 0.238 ± 0.018; RVHI ([3]; 25 mg/kg): 0.240 ± 0.028; RVSP ([3]; 25 mg/kg): 50.12 ± 2.96 mmHg; mPAP ([3]; 25 mg/kg): 14.34 ± 2.48 mmHg
3 | CC(C)N(CCCCOCC(=O)NS(C)(=O)=O)c1cnc(-c2ccccc2)c(-c2ccccc2)n1 [selexipag, reference compound] |  |  |  |  |  |  |  |  |  |  |  |  |  |  |  |  |  |  |  |  | pulmonary arteriole hypertrophy vs. Model ([2]; 1 mg/kg): significantly reduced; 2 × MT/ED ([2]; 1 mg/kg, twice a day): 0.30 ± 0.086; RVHI ([2]; 1 mg/kg, twice a day): 0.27±0.026; RVSP ([2]; 1 mg/kg, twice a day): 35.67 ± 2.89 mmHg; mPAP ([2]; 1 mg/kg, twice a day): 8.78 ± 1.98 mmHg
4 | CCc1cccc(C(CO)OC2OC(CO)C(O)C(O)C2O)c1 (stereo not shown) [Compound 16] | 9 mmHg | 174 ± 10.6 mmHg | 11 mmHg | 172 ± 10.4 mmHg | 10 mmHg | 173 ± 9.90 mmHg | 15 mmHg | 168 ± 6.61 mmHg | 11 mmHg | 172 ± 7.25 mmHg | 9 mmHg | 174 ± 12.1 mmHg | 0.32 ± 0.066 | 0.320 ± 0.031 | 48.89 ± 6.64 mmHg | 16.74 ± 3.08 mmHg | 0.289 ± 0.030 | 0.365 ± 0.031 | 65.83 ± 3.26 mmHg | 18.60 ± 3.60 mmHg | 2 × MT/ED [4]: 0.357 ± 0.032; RVHI [4]: 0.290 ± 0.054; RVSP [4]: 41.44 ± 2.03 mmHg; mPAP [4]: 14.76 ± 1.98 mmHg
5 | CCc1cccc(C(COC(C)=O)OC(C)=O)c1 (stereo not shown) [Compound 30] | 4 mmHg | 189 ± 7.54 mmHg | 5 mmHg | 188 ± 3.69 mmHg | 8 mmHg | 185 ± 10.11 mmHg | 20 mmHg | 183 ± 9.66 mmHg | 5 mmHg | 188 ± 14.9 mmHg | 5 mmHg | 188 ± 8.64 mmHg | 0.31 ± 0.021 | 0.245 ± 0.032 | 44.38 ± 2.89 mmHg | 16.21 ± 1.29 mmHg | 0.287 ± 0.025 | 0.303 ± 0.0632 | 62.14 ± 3.35 mmHg | 16.03 ± 5.35 mmHg | 2 × MT/ED [4]: 0.402 ± 0.034; RVHI [4]: 0.273 ± 0.043; RVSP [4]: 46.04 ± 3.27 mmHg; mPAP [4]: 16.00 ± 3.44 mmHg
